Experimental data reported in PubChem BioAssay AID2042 (NMMLSC, 2009).
Calls of active or inactive are those of the source.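 The calls were made as follows: active = EC50 at most 30 µM plus a dose-response curve spanning at least 25% response; inactive = the rest.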

These compounds were tested against GTPase HRas (Homo sapiens) (UniProt P01112) (assay: mutant Ras fluorescent GTP loading blockade – biochemical, oxadiazole analogs, activated mutant, multiplex flow cytometry, SAR follow-up (AID 2042)). Settings: GST-Ras beads, Bodipy-FL-GTP binding.
Chain of GTPase HRas (Homo sapiens) (P01112 whole entry, looked up): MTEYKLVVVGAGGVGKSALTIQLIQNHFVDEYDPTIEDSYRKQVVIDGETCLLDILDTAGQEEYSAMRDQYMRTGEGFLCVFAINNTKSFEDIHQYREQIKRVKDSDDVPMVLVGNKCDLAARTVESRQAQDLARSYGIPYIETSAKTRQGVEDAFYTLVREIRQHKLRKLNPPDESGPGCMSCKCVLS
Cc1ccc(C)c(N2CCN(C(=O)CCc3nc(-c4ccccc4C(F)(F)F)no3)CC2)c1 was tested, and the EC50 was > 30 µM (inactive).
With COc1ccc(-c2ccc(CCC(=O)N3CCN(c4cc(C)ccc4C)CC3)o2)cc1 the EC50 was > 30 µM (inactive).
For COc1ccc(-c2noc(CCC(=O)N3CCN(c4ccc(C(F)(F)F)cc4)CC3)n2)cc1, the EC50 was > 30 µM (inactive).
In the case of COc1ccc(-c2noc(CCC(=O)N3CCN(c4ccc(Cl)cc4)CC3)n2)cc1, the EC50 is reported as > 30 µM (inactive).
Cc1ccc(C)c(N2CCN(C(=O)CCc3nc(-c4cccc(C(F)(F)F)c4)no3)CC2)c1 was tested, and the EC50 was > 30 µM (inactive).
With COc1ccc(-c2noc(CCC(=O)N3CCN(c4cccc(Cl)c4)CC3)n2)cc1 the EC50 was > 30 µM (inactive).
COc1ccc(-c2noc(CCC(=O)N3CCN(c4cccc(C)c4)CC3)n2)cc1 was tested, and the EC50 was > 30 µM (inactive).
COc1ccc(-c2noc(CCC(=O)N3CCN(c4ccccc4C)CC3)n2)cc1 was tested, and the EC50 was > 30 µM (inactive).
COc1ccc(-c2noc(CCC(=O)N3CCN(c4ccccc4Cl)CC3)n2)cc1 was tested, and the EC50 was > 30 µM (inactive).
COc1ccc(-c2noc(CC(=O)N3CCN(c4cc(C)ccc4C)CC3)n2)cc1 was tested, and the EC50 was > 30 µM (inactive).
COc1ccc(-c2coc(CCC(=O)N3CCN(c4cc(C)ccc4C)CC3)n2)cc1 was tested, and the EC50 was > 30 µM (inactive).
COc1ccc(-c2noc(CCC(=O)N3CCC(c4cc(C)ccc4C)CC3)n2)cc1 was tested, and the EC50 was > 30 µM (inactive).
COc1ccc(-c2noc(CCC(=O)N3CCN(c4cc(C)ccc4C)CC3)n2)cc1 was tested, and the EC50 was “inactive”.
For Cc1ccc(C)c(N2CCN(C(=O)CCc3nc(-c4ccc(C(F)(F)F)cc4)no3)CC2)c1, the EC50 was > 30 µM (inactive).
For Cc1ccc(C)c(N2CCN(C(=O)CCc3nc(-c4ccccc4C)no3)CC2)c1, the EC50 was > 30 µM (inactive).
In the case of COc1ccc(-c2cc(CCC(=O)N3CCN(c4cc(C)ccc4C)CC3)[nH]n2)cc1, the EC50 is reported as > 30 µM (inactive).
With Cc1ccc(C)c(N2CCN(C(=O)CCc3nc(-c4ccc(F)cc4)no3)CC2)c1 the EC50 was > 30 µM (inactive).
In the case of COc1ccc(-c2noc(CCC(=O)N3CCN(c4cccc(C)c4C)CC3)n2)cc1, the EC50 is reported as > 30 µM (inactive).
In the case of Cc1ccc(C)c(N2CCN(C(=O)CCc3nc(-c4cccc(Br)c4)no3)CC2)c1, the EC50 is reported as > 30 µM (inactive).
For COc1ccc(-c2noc(CCC(=O)N3CCN(c4cccc(Br)c4)CC3)n2)cc1, the EC50 was > 30 µM (inactive).
COc1cccc(-c2noc(CCC(=O)N3CCN(c4cc(C)ccc4C)CC3)n2)c1 was tested, and the EC50 was “inactive”.
For COc1ccc(-c2noc(CCC(=O)N3CCN(c4ccccc4F)CC3)n2)cc1, the EC50 was “inactive”.
COc1ccc(-c2noc(CCC(=O)N3CCN(c4ccccc4)CC3)n2)cc1 was tested, and the EC50 was > 30 µM (inactive).
With Cc1ccc(C)c(N2CCN(C(=O)CCc3nc(-c4ccccc4F)no3)CC2)c1 the EC50 was > 30 µM (inactive).
For COc1ccc(-c2noc(CCC(=O)N3CCN(c4ccccc4C(F)(F)F)CC3)n2)cc1, the EC50 was > 30 µM (inactive).
In the case of COc1ccc(-c2cccc(CCC(=O)N3CCN(c4cc(C)ccc4C)CC3)c2)cc1, the EC50 is reported as > 30 µM (inactive).
COc1ccc(-c2noc(CCC(=O)N3CCN(c4cccc(F)c4)CC3)n2)cc1 was tested, and the EC50 was > 30 µM (inactive).
With Cc1ccc(C)c(N2CCN(C(=O)CCc3nc(-c4ccccc4Br)no3)CC2)c1 the EC50 was > 30 µM (inactive).
In the case of Cc1ccc(C)c(N2CCN(C(=O)CCc3nc(-c4ccc(Br)cc4)no3)CC2)c1, the EC50 is reported as > 30 µM (inactive).
With COc1ccc(-c2noc(CCC(=O)N3CCN(c4ccc(F)cc4)CC3)n2)cc1 the EC50 was > 30 µM (inactive).
COc1ccc(-c2noc(CCC(=O)N3CCN(c4ccccc4Br)CC3)n2)cc1 was tested, and the EC50 was > 30 µM (inactive).
In the case of COc1ccc(-c2cc(CCC(=O)N3CCN(c4cc(C)ccc4C)CC3)on2)cc1, the EC50 is reported as > 30 µM (inactive).
COc1ccc(-c2noc(CCC(=O)N3CCN(c4ccccc4OC)CC3)n2)cc1 was tested, and the EC50 was > 30 µM (inactive).
With Cc1ccc(C)c(N2CCN(C(=O)CCc3nc(-c4ccccc4)no3)CC2)c1 the EC50 was > 30 µM (inactive).
COc1ccc(-c2noc(CCC(=O)N3CCN(c4ccc(Br)cc4)CC3)n2)cc1 was tested, and the EC50 was > 30 µM (inactive).
In the case of Cc1ccc(C)c(N2CCN(C(=O)CCc3nc(-c4ccc(Cl)cc4)no3)CC2)c1, the EC50 is reported as > 30 µM (inactive).
Cc1cccc(-c2noc(CCC(=O)N3CCN(c4cc(C)ccc4C)CC3)n2)c1 was tested, and the EC50 was > 30 µM (inactive).
In the case of COc1ccc(-c2noc(CCC(=O)N3CCN(c4cccc(OC)c4)CC3)n2)cc1, the EC50 is reported as > 30 µM (inactive).
With Cc1ccc(-c2noc(CCC(=O)N3CCN(c4cc(C)ccc4C)CC3)n2)cc1 the EC50 was > 30 µM (inactive).
In the case of COc1ccc(-c2noc(CCC(=O)N3CCN(c4ccc(C)cc4)CC3)n2)cc1, the EC50 is reported as > 30 µM (inactive).
With Cc1ccc(C)c(N2CCN(C(=O)CCc3nc(-c4cccc(F)c4)no3)CC2)c1 the EC50 was > 30 µM (inactive).
In the case of COc1ccc(-c2ccc(CCC(=O)N3CCN(c4cc(C)ccc4C)CC3)s2)cc1, the EC50 is reported as > 30 µM (inactive).
With COc1ccc(-c2ccc(CCC(=O)N3CCN(c4cc(C)ccc4C)CC3)[nH]2)cc1 the EC50 was > 30 µM (inactive).
With Cc1ccc(C)c(N2CCN(C(=O)CCc3nc(-c4ccccc4Cl)no3)CC2)c1 the EC50 was > 30 µM (inactive).
Cc1ccc(C)c(N2CCN(C(=O)CCc3nc(-c4cccc(Cl)c4)no3)CC2)c1 was tested, and the EC50 was > 30 µM (inactive).
With COc1ccc(-c2noc(CCCC(=O)N3CCN(c4cc(C)ccc4C)CC3)n2)cc1 the EC50 was > 30 µM (inactive).
For COc1ccccc1-c1noc(CCC(=O)N2CCN(c3cc(C)ccc3C)CC2)n1, the EC50 was > 30 µM (inactive).
COc1ccc(-c2noc(CCC(=O)N3CCN(c4ccc(OC)cc4)CC3)n2)cc1 was tested, and the EC50 was > 30 µM (inactive).
Cc1ccc(C)c(N2CCN(C(=O)CCc3nc(-c4ccc(N(C)C)cc4)no3)CC2)c1 was tested, and the EC50 was > 30 µM (inactive).
In the case of COc1ccc(-c2noc(CCCCC(=O)N3CCN(c4cc(C)ccc4C)CC3)n2)cc1, the EC50 is reported as > 30 µM (inactive).
With COc1ccc(-c2noc(CCC(=O)N3CCN(c4cccc(C(F)(F)F)c4)CC3)n2)cc1 the EC50 was > 30 µM (inactive).

Same assay, conditions: GST-Ras beads, Bodipy-FL-GTP binding, measured here: Ki calculated from EC50
COc1ccc(-c2noc(CCC(=O)N3CCN(c4cc(C)ccc4C)CC3)n2)cc1 was tested, and the Ki was 120 nM.
For COc1cccc(-c2noc(CCC(=O)N3CCN(c4cc(C)ccc4C)CC3)n2)c1, the Ki was 280 nM.
For COc1ccc(-c2noc(CCC(=O)N3CCN(c4ccccc4F)CC3)n2)cc1, the Ki was 60 nM.
